From patent US7109339B2, “Substituted tricyclic gamma-carbolines as serotonin receptor agonists and antagonists” (Bristol-Myers Squibb Company, priority 2002, dated 2006)

melting point [°C]	Compound
140 to 144	COc1cc2c(c(C(F)(F)F)c1)N[C@H]1CCNC[C@@H]21
74 to 78	CC(C)(C)OC(=O)N1CC[C@H]2[C@@H](C1)c1cc(Br)cc(C#N)c1N2C(=O)OC(C)(C)C
76 to 80	COc1ncc(C)cc1Nc1cc(C#N)c2c(c1)[C@@H]1CNCC[C@@H]1N2C [Example 169, (4aS,9bR)-8-(2-methoxy-5-methyl-pyridin-3-ylamino)-5-methyl-2,3,4,4a,5,9b-hexahydro-1H-pyrido[4,3-b]indole-6-carbonitrile]
